According to patent US20110179505A1, “RODENT CANCER MODEL FOR HUMAN FGFR4 ARG388 POLYMORPHISM” (priority 2008, published 2011):
“Also recorded” adds a separate entry of the source.

Tests used:
Type in all cases: cell-based, human
[1] = tested on: FGFR4 Arg388 expressing MDA-MB-231 cells; experiment: Apoptosis in response to Gefitinib treatment; conditions: Gefitinib 20 μM (p=0.012) and 10 μM (p=0.0022); 96 hours
Protocol: In a preferred embodiment, the proliferation rate is determined via a MTT proliferation assay, the apoptosis is determined via FACS analysis (Nicoletti et al., 1991, J. Immunol. Methods, 139: 271-279), and/or the migration is determined with a Boyden Chamber Assay, e.g. as described in the Examples below.
To further analyze the physiological connection between the EGFR and the FGFR4 we investigated the differences between the different FGFR4 alleles in MDA-MB-231 overexpressing cells upon exposure to Gefitinib. […]. Therefore, physiological processes that require the dimerization of the EGFR and the FGFR4 should lead to different results in the presence of Gefitinib compared to those obtained without an EGFR inhibitor. […]. Therefore, we investigated the impact of FGFR4 Arg388 overexpression on apoptosis in response to Gefitinib treatment in MDA-MB-231 cells. […]; 10 μM-p=0.0022). […].

[2] = tested on: MDA-MB-231 cells expressing the FGFR4 Arg388 allele; conditions: FIG. 20C
[3] = tested on: MDA-MB-231 cells expressing FGFR4 Gly388; conditions: up to 20 μM of Gefitinib
[4] = tested on: MDA-MB-231 cells expressing the empty pLXSN vector; experiment: MTT-proliferation assay with Gefitinib; conditions: up to 20 μM of Gefitinib
[5] = tested on: MDA-MB-231 cells overexpressing the FGFR4 Arg388 allele; conditions: FGFR4 Arg388 expressing cells; Gefitinib 0.025-20 μM

COc1cc2ncnc(Nc3ccc(F)c(Cl)c3)c2cc1OCCCN1CCOCC1 [Gefitinib]
apoptotic response in FGFR4 Arg388 cells compared to FGFR4 Gly388 cells [1]: significantly increased apoptotic response; also recorded: significant increase in apoptosis
migration in FGFR4 Arg388 cells compared to FGFR4 Gly388 cells in response to Gefitinib [2]: decrease in migration
response in MTT-proliferation assay [3]: no response
response in MTT-proliferation assay [4]: no response
response in MTT-proliferation assay [5]: typical dose response curve
